The results in this text go back to patent US12663425B2, “Delta-2-tubulin as a biomarker and therapeutic target for peripheral neuropathy” (THE TRUSTEES OF COLUMBIA UNIVERSITY IN THE CITY OF NEW YORK, priority 2017, dated 2026).

In data set [1] the test system is delta-2-tubulin. Kind of data set: Delta-2-tubulin levels in cultured neurons (western blot, immunofluorescence). It counts as cell-based. As to conditions: for delta-2-tubulin expression: cultured hippocampal and DRG neurons (FIG. 6). As to the method:
FIG. 6. Bortezomib induces delta-2-tubulin in DRG neurons as shown by western blot analysis of delta-2-tubulin levels from whole cell lysates of adult DRG neurons treated with Bortezomib and immunofluorescence of delta-2-tubulin in cultured DRG neurons treated with Bortezomib.
(§1) FIG. 7A-7D. Bortezomib induces delta-2-tubulin at the onset of axonal degeneration. (A) Representative immunofluorescence of D2 and βIII-tub staining in DRG neurons treated with 100 nM of Bortezomib for the indicated times. Bar, 50 μm. (B) Ratio analysis of D2/βIII-tubulin levels measured by immunofluorescence of fixed cells treated as in A. **, p≤0.01, ****, p≤0.0001 by t-test (unpaired, two-tailed). […] Data are mean values±SEM from 3 experiments. (D) Number of retraction bulbs per field in DRG neurons treated with 100 nM of Bortezomib for the indicated times. **, p≤0.01.
FIG. 12. (A) Immunoblot of D2 levels from whole cell lysates of adult DRG neurons (14 DIV) treated with increasing doses of Bortezomib for the indicated times. (B) IB of D2 levels in the MT pellet (P) and soluble tubulin (S) fractions isolated from adult DRG neurons (8 DIV) treated with 100 nM of Bortezomib for the indicated times.
(§2) Peripheral neurons from patients suffering from CIPN were analyzed for delta-2-tubulin expression. […] In addition.
(In general: Immunoblotting shows a protein as a band on a membrane.)

For data set [2], the system named is tubulin tyrosine ligase (TTL). Kind of data set: Immunoblot of tubulin tyrosine ligase (TTL) and D2 levels in adult DRG neurons. It counts as cell-based. Conditions: adult DRG neurons 14 DIV, 100 nM (FIG. 11). As to the method:
FIG. 11. Immunoblot of tubulin tyrosine ligase (TTL) and D2 levels in adult DRG neurons (14 DIV) treated with 100 nM Bortezomib.
(§3) Microtubule dynamics were analyzed in DRG neurons following bortezomib treatment. […] TTL binds αβ-tubulin dimer and catalyzes the post-translational addition of a tyrosine to the C-terminal end of detyrosinated α-tubulin. Song et al., J. of Bio. Chem. 290(23):14765-14775 (2015).

The nature of data set [3]: Dynamic test, plantar test and electrophysiological tests in rats chronically treated with bortezomib. It counts as in vivo, female Wistar rats. As to conditions: chronic: 0.2 mg/kg, three times per week, 8 weeks. The protocol:
FIG. 1A-1D. Chronic doses of bortezomib affect animal behavior and nerve function. (A) Hind-paw withdrawal response to mechanical stimulus (10-50 g). (B) Plantar withdrawal latency response to heat source (infra-red light). Dynamic and plantar tests were performed before (baseline value), after 4-week and at the end point of treatment with Bortezomib. Data are expressed as mean values±SD, n animals=12. (C, D) Caudal and digital nerve conduction velocity (NCV) and amplitude measured in rats treated chronically with Bortezomib. n=8-10 per group; *p<0.05 compared to control.
To determine the effects of bortezomib on the post-translation modifications of tubulin, female Wistar rats were treated with single or multiple administrations pf bortezomib (5 rats for each treatment). Acute treatment included a single intravenous administration of bortezomib at a concentration of 0.2 mg/kg. Chronically treated rats were treated with bortezomib for a total of 8 weeks, with administration of bortezomib three times per week at a concentration of 0.2 mg/kg. […] Certain post-translation modifications of α-tubulin, e.g., acetylation, are reduced in dorsal root ganglions neurons (DRGs) and sural nerves (SNs) from rats chronically treated with bortezomib (FIG. 2) and in rats acutely treated with bortezomib (FIG. 3).

The subject of data set [4] is DRG neurons. Kind of data set: Axonal degeneration (degeneration index) in cultured DRG neurons. It counts as cell-based. As to conditions: DRG neurons treated with 100 nM for the indicated times (FIG. 7C). The protocol:
as §1
FIG. 9A-9E. Delta-2-tubulin accumulation is sufficient to drive axonopathy. (A) Schematic of the enzymes involved in D2 generation. (B) Immunoblot of tubulin tyrosine ligase (TTL), D2 and tyrosinated (TYR) tubulin levels in adult DRG neurons (14 DIV) silenced of TTL expression at 7 DIV. (C) Representative immunofluorescence images of DRG neurons as in B. (D) Axonal degeneration and number of retraction bulbs per field in DRG neurons treated as in B. (E) Axonal degeneration in DRG neurons that overexpress D2-(PVLX-EGFP-D2Tub) or WT-tubulin (PVLX-EGFP-Tub). Data are mean values±SEM from 3 experiments. ***, p≤0.001; **, p≤0.01, *p≤0.05 by t-test (unpaired, two-tailed). Bar, […].
FIG. 14A-14D. […]
Peripheral neurons from patients suffering from CIPN were analyzed for delta-2-tubulin expression. […]

Data set [5] relates to DRG neurons. Kind of data set: EGFP-EB3 analysis of microtubule dynamics in DRG neurons. As to conditions: DRG neurons 7 DIV, 100 nM, prior to delta-2-tubulin induction (FIG. 8). It counts as cell-based. The protocol:
FIG. 8. Bortezomib induces MT stability without affecting MT dynamics prior to D2 induction. EGFP-EB3 time course analysis of MT dynamics parameters in DRG neurons (7 days in vitro (DIV)) treated with 100 nM Bortezomib for the indicated times. Data were pulled from up to 300 comets and 12-15 neurites for each group and analyzed by one-way ANOVA, multiple comparison. (NS, non-significant).
as §3

Data set [6] concerns delta-2-tubulin. Kind of data set: Quantitative immunofluorescence of tubulin post-translational modifications in DRG and sural nerve of treated rats. It counts as in vivo, female Wistar rats. As to the method:
FIG. 2. Immunofluorescence analysis of selected α-tubulin post-translational modifications in neuronal tissue from chronically treated rats. Relative tubulin post-translational modifications levels measured by quantitative immunofluorescence in randomly selected dorsal root ganglion cell bodies (DRG) and sural nerve (SN) from rats (4 per group) treated with chronic (0.2 mg/kg, 3× week for 8 weeks) doses of Bortezomib. Data are mean values±SEM. ****, p≤0.0001; ***, p≤0.001; **, p≤0.01; *, p≤0.05 by ANOVA (in red,) or unpaired, two-tailed t-test (in black).
FIG. 3A-3C. […] (A) Representative immunofluorescence staining of DRG isolated from rats acutely treated with Bortezomib. (B) Relative tubulin post-translational modifications levels measured by quantitative immunofluorescence in randomly selected DRG and SN from rats (4 per group) treated with acute (i.v. 0.2 mg/kg; 24 hr) doses of Bortezomib. Data are mean values±SEM, ****, p≤0.0001; ***, p≤0.001; **, p≤0.01; *, p≤0.05 by ANOVA (A in red,) or unpaired, two-tailed t-test (A in black). (C) Schematic of the enzymes involved in D2 generation.
FIG. 13A-13E. […] (A) Immunofluorescence staining of Peripherin (smaller unmyelinated C-fibers) or (B) NF200 (large myelinated A-β fibers)(C) TrkC (proprioceptive)(D) TrkA (nociceptive) in DRG L4-L5 dissected from rats treated with Bortezomib for 24 hr. (E) Correlation between peripherin, NF200, TrkC, TrkA and D2 intensity values in randomly selected DRG cell bodies was calculated by using Pearson coefficient (r). Scale bar, 50 μm.
To determine the effects of bortezomib on the post-translation modifications of tubulin, female Wistar rats were treated with single or multiple administrations pf bortezomib (5 rats for each treatment). Acute treatment included a single intravenous administration of bortezomib at a concentration of 0.2 mg/kg. Chronically treated rats were treated with bortezomib for a total of 8 weeks, with administration of bortezomib three times per week at a concentration of 0.2 mg/kg.
To determine the effect of bortezomib on tubulin expression, DRGs were analyzed for delta-2-tubulin expression. […] Further analysis of other unrelated chemotherapy-induced peripheral neuropathy (CIPN) drugs was performed to determine their effect on delta-2-tubulin expression levels. […] Additional experiments were performed to determine whether DRGs with different sensory modalities and diameters are preferentially affected by bortezomib treatment.

For data set [7], the system named is delta-2-tubulin. Kind of data set: Delta-2-tubulin in sural nerve biopsy of CIPN patients (immunofluorescence, immunoblot). Conditions: CIPN patients (FIG. 5). It counts as in vivo.
Source text: FIG. 5A-5C. Bortezomib induces delta-2-tubulin in CIPN patients. (A) Representative immunofluorescence staining of SN isolated from a patient affected by CIPN. (B) Ratio analysis of D2/βIII-tubulin levels measured by immunofluorescence of fixed tissue from one SN biopsy. Data are mean values from 3 sections±SEM, ****, p<0.0001 by t-test (unpaired, two-tailed). (C) Immunoblot of D2 levels in whole cell lysates from one SN biopsy. Tyr, tyrosinated tubulin.
as §2

Data set [8] has as its system DRG neurons. Kind of data set: Mitochondrial motility in DRG neurons (mito-DsRed kymographs). It counts as cell-based. Conditions: 100 nM for 24 hr (FIG. 15D). The protocol:
FIG. 15A-15F. D2 accumulation is necessary and sufficient to affect mitochondria motility. (A) Representative kymographs of mitochondrial motility in DRG neurons (7 DIV) infected for 4 days with PVLX-EGFP-D2- or WT-Tubulin lentivirus prior to 72 hr infection with mito-DsRed lentivirus. (B) Quantification of the percentage of moving mitochondria as in A. Videos (10 s/frame for 30 min). (C, F) Percentage of different mitochondria movement states, Dynamic Pause (DP), Stationary (STA), Anterograde Running (AR), Retrograde Running (RR) (1 s/frame for 3 min, C), (10 s/frame for 30 min, F). (D) Representative kymographs of mitochondrial motility in DRG neurons (7 DIV) infected for 4 days with ShCCP1 or shControl lentivirus prior 72 hr infection with mito-DsRed lentivirus followed by Bortezomib treatment (100 nM for 24 hr). (E) Quantification of the percentage of moving mitochondria as in D. Videos (10 s/frame for 30 min). […]
To determine the effect bortezomib and delta-2 tubulin accumulation have on mitochondrial motility, DRG neurons were transduced with lentivirus to express wild-type tubulin or delta-2 tubulin. […] Expression of delta-2 tubulin affected every state of mitochondrial movement analyzed except for the stationary state (STA) (FIG. 15C). The effect of CCP1 knockdown on mitochondrial movement in the presence of bortezomib was also analyzed.

Turning to `CC(C)C[C@H](NC(=O)[C@H](Cc1ccccc1)NC(=O)c1cnccn1)B(O)O` [bortezomib], the “delta-2-tubulin induction relative to axonal degeneration (degeneration index)” value in data set [1] (DRG neurons, 100 nM, time course (FIG. 7)) is reported as “induced delta-2-tubulin at the onset of axonal degeneration”. Besides, the delta-2-tubulin expression result in data set [1] is listed as “increase in delta-2-tubulin expression”. In addition, the “TTL expression, western blot” value in data set [2] was “reduction of TTL expression”. Also, the “delta-2-tubulin, western blot” value in data set [2] is recorded as “accumulation of delta-2-tubulin”. In addition, in data set [3], the “animal behavior and nerve function (dynamic test, plantar test, electrophysiological tests)” value is “affected animal behavior and nerve function”. Further, the axonopathy result in data set [4] is recorded as “Time dependent increase of axonopathy”. Moreover, the “microtubule dynamics (rescue/nucleation frequency, catastrophe frequency, comet density, growth rate)” value in data set [5] is listed as “does not affect microtubule dynamics”. The “delta-2-tubulin in proprioceptive and nociceptive DRG neurons” value in data set [6] (DRG L4-L5 of rats treated for 24 hr (FIG. 13)) is “accumulate delta-2-tubulin”. Moreover, the “delta-2-tubulin in DRG cell bodies, compared to βIII-tubulin and control” value is “increased” in data set [6] (acute treatment, single i.v. 0.2 mg/kg, 24 hr (FIG. 3)) and “increased” in data set [6] (chronic treatment, 0.2 mg/kg 3x week for 8 weeks (FIG. 2)). Besides, the “post-translation modifications of α-tubulin, e.g., acetylation, in DRGs and SNs” value in data set [6] (rats acutely treated, single i.v. 0.2 mg/kg, 24 hr (FIG. 3)) is recorded as “reduced”; in data set [6] (rats chronically treated, 0.2 mg/kg 3x week for 8 weeks (FIG. 2)) it was “reduced”. Moreover, in data set [7], the “delta-2-tubulin expression in peripheral neurons, e.g., sural nerve” value is given as “induced delta-2-tubulin expression”. For the same compound, in data set [8], the movement of mitochondria entry is “greatly affected the movement of mitochondria”.

For `CC(=O)O[C@H]1C(=O)[C@@]2(C)[C@H]([C@H](OC(=O)c3ccccc3)[C@]3(O)C[C@H](OC(=O)[C@H](O)[C@@H](NC(=O)c4ccccc4)c4ccccc4)C(C)=C1C3(C)C)[C@]1(OC(C)=O)CO[C@@H]1C[C@@H]2O` [paclitaxel], the delta-2-tubulin expression result in data set [1] is on record as “increase in delta-2-tubulin expression”. Besides, the “delta-2-tubulin in DRG neurons compared to control” value in data set [6] (unrelated CIPN drugs, acute (FIG. 4)) is listed as “acutely accumulated delta-2-tubulin”.
